Reference: patent US8367121B2, “Nutraceutical agent for attenuating the neurodegenerative process associated with Parkinson's disease” (Florida A & M University, priority 2005, dated 2013)
Like-named read-outs stand apart in the source and are kept apart here.

Columns and labels:
[1] = system: MPP+ toxicity; assay: MPP+ toxicity in vitro (loss of ATP / cell death); format: cell-based; conditions: for protection against MPP+ toxicity: in vitro
[2] = Reduce/chelate and complex iron; conditions: as demonstrated in our lab
[3] = Non-enzymatic DA oxidation to melanized pigments in buffered non-acid solution exposed to atmosphere; conditions: neutral pH; data not published
From the text: 2. DA AUTOXIDATION—The second major route for DA oxidation is non-enzymatic autoxidation in the presence of H2O2, ROS and metals (Fe^+2, Cu^+2, and Mn^+2) (Montgomery et al., Toxicology. 1995 Mar. 31; 97(1-3):3-9; Sayre et al., 1999 Bio-inorganic Chemistry 3:220-225). Autoxidation of DA can render formation of 6-OHDA (a potent neurotoxin) and O2.^−, of which the later if in proximity to nitric oxide (NO) can react to form ONOO—. Peroxynitrite can then re-oxidize DA, deplete available reduced glutathione/ascorbate, incur a substantial loss of endogenous GSH-peroxidase function and destroy the natural ability of GSH to act as an antioxidant, inactivate toxic DA o-semiquinones or ONOO—(Blum et al., 2001; Antunes et al., Toxicology. 2005 Mar. 15; 208(2):207-12). Likewise, the neurological damage associated with PD corresponds to depletion of SNc GSH as consistently evidenced in various studies (Ebadi et al, Prog Neurobiol. 1996 January; 48(1):1-19) and a reduction of GSH (ie. γ-glutamylcysteine. synthetase inhibitor) renders SNc neurons extremely vulnerable to the toxic effects of MPTP and 6-OHDA (Bharath et al., Biochem Pharmacol. 2002 September; 64(5-6):1037-48). In contrast, administration of thiol antioxidants such as dithioreitol, GSH and NAC (which block the autoxidation of DA), prevent MPTP induced toxicity in mice (Annepu and Ravindranath, Neurosci Lett. 2000 Aug. 11; 289(3):209-12; Bahat-Stroomza et al., Eur J Neurosci. 2005 February; 21(3):637-46). For these reasons, the formulation will include substances that prevent non-enzymatic DA oxidation herein classified under “DA-AUTOXIDATION (−)”. The compounds chosen were based on their propensity to block DA oxidation to melanized pigments in buffered non-acid solution exposed to atmosphere and corresponding production of ROS upon exposure of O2 (data not published). Of approximately 100 food based compounds tested in our lab, the findings indicate a block of DA oxidation at neutral pH by PY, β-CAROTENE (*), NAC (*), GSH (*), VITAMIN C (*). […] The addition of ascorbic acid as a DA-AUTOXIDATION (−) should be limited given its negative counter-indication with iron and 6-OHDA (Mendez-Alvarez et al., Free Radic Biol Med. 2001 Oct. 15; 31(8):986-98). In contrast, ample concentration of thiol substances should be added to the formulation as they are non-toxic, attenuate pathological effects of 6-OHDA, ONOO— and block the formation of DA o-semiquinone neurotoxic radicals (Asanuma et al., Acta Med. Okayama 2004: 58 (5) 221-233).

[4] = system: 6-OHDA toxicity; assay: 6-OHDA toxicity in vitro; format: cell-based
[5] = system: LDH; assay: Substrate for lactic acid dehydrogenase; format: biochemical
From the text: (§1) With that, overcoming the initial deficit imposed by PD toxins such as MPP+ are possible with non-glucose intermediates that are capable of sustaining ATP production through substrate level phosphorylation. These compounds should protect against cell death by MPP+, herein also classified under “ANAEROBIC (+)”. […] Agents capable of mediating positive effects on PK/LDH should in theory offset the metabolic vulnerability imposed by the rise in lactate/pyruvate, nicotinamide adenine dinucleotide (NAD)/nicotinamide adenine dinucleotide reduced (NADH) and NADP/NADPH ratios that occur during hypoglycemia and neurological damage (Auer RN. Metab Brain Dis. 2004 December; 19(3-4):169-75). For this reason, the first component and the base of this nutraceutical formulation are one or more of PYRUVIC ACID (*) (PY), […] ACID (SA)* and OXALOACETATE (*) (OA) as well as their corresponding molecular derivatives, analogues, esters or salts. […] On the other hand, PY can readily enter the brain, serve as a useful substrate for glycolysis, the Krebs cycle and the GABA shunt (Gonzalez et al., J Neurochem. 2005 October; 95(1):284-93) with capability to protect ergogenic failure associated with ischemic stroke and heart disease (Lee et al., J Neurosci. 2001 Oct. 15; 21(20):RC171; Hermann et al., Eur J Heart Fail. 2004 Mar. 1; 6(2):213-8).

[6] = system: H2O2 toxicity; assay: H2O2 toxicity in vitro; format: cell-based
From the text: as §1

[7] = system: mitochondrial respiration; assay: Mitochondrial O2 consumption / respiration; format: biochemical
[8] = system: complex I; assay: Mitochondrial complex I function
[9] = system: complex IV; assay: Mitochondrial complex IV function; format: biochemical
[10] = system: complex II; assay: Mitochondrial complex II function; format: biochemical
[11] = system: 6-OHDA toxicity; conditions: Kabuto et al., Neurochem Res. 2005; cited from earlier work
[12] = Non-enzymatic H2O2 scavenging

CC(=O)O[C@H](CC(=O)[O-])C[N+](C)(C)C [ACETYL-L-CARNITINE]
protection against MPP+ toxicity [1]: effective

O=C(O[C@@H]1Cc2c(O)cc(O)cc2O[C@@H]1c1cc(O)c(O)c(O)c1)c1cc(O)c(O)c(O)c1 [EGCG, (−)-Epigallocatechin-3-gallate]
protection against MPP+ toxicity [1]: effective

COc1cc(/C=C/C(=O)O)ccc1O [FERULIC ACID]
reduce/chelate and complex iron [2]: most powerful

O=C(COP(=O)(O)O)[C@@H](O)[C@H](O)[C@H](O)COP(=O)(O)O [FRUCTOSE 1,6 BISPHOSPHATE]
protection against MPP+ toxicity [1]: effective

O=C(CO)[C@@H](O)[C@H](O)[C@H](O)CO [FRUCTOSE]
protection against MPP+ toxicity [1]: effective

N[C@@H](CCC(=O)N[C@@H](CS)C(=O)NCC(=O)O)C(=O)O [GSH, reduced glutathione]
block of DA oxidation [3]: block
protection against / antagonism of 6-OHDA toxicity [4]: directly antagonize

O=c1c(O)c(-c2ccc(O)cc2O)oc2cc(O)cc(O)c12 [MORIN]
reduce/chelate and complex iron [2]: most powerful

CC(=O)N[C@@H](CS)C(=O)O [NAC, N-acetyl-L-cysteine]
block of DA oxidation [3]: block
protection against / antagonism of 6-OHDA toxicity [4]: directly antagonize

NC(=O)C1=CN([C@@H]2O[C@H](COP(=O)(O)OP(=O)(O)OC[C@H]3O[C@@H](n4cnc5c(N)ncnc54)[C@H](O)[C@@H]3O)[C@@H](O)[C@H]2O)C=CC1 [NADH, reduced nicotinamide adenine dinucleotide]
protection against MPP+ toxicity [1]: protect

C=C(OP(=O)(O)O)C(=O)O [PHOSPHOENOLPYRUVATE]
protection against MPP+ toxicity [1]: effective

CN1C(C(=O)Nc2ccccn2)=C(O)c2ccccc2S1(=O)=O [PIROXICAM, reference compound]
protection against MPP+ toxicity [1]: effective

CC(=O)C(=O)O [PY, PYRUVIC ACID]
protection against MPP+ toxicity [1]: protect
block of DA oxidation [3]: block
protection against / antagonism of 6-OHDA toxicity [4]: protect
protection against / antagonism of 6-OHDA toxicity ([4]; listed as pyruvate): directly antagonize
substrates for LDH [5]: exceptional substrates for LDH
protection against H2O2 toxicity [6]: protect

Oc1ccc(C=Cc2cc(O)cc(O)c2)cc1 [RESVERATROL]
protection against MPP+ toxicity [1]: effective

O=C(O)CCC(=O)O [SA, SUCCINIC ACID]
fuel anaerobic glycolysis in the presence of MPP+ ([1]; data not published): great propensity

Oc1ccc2c(c1)OCO2 [SESAMOL]
reduce/chelate and complex iron [2]: most powerful

CC1=CC(=O)C(C(C)C)=CC1=O [THYMOQUINONE]
protection against MPP+ toxicity [1]: effective

N[C@@H](Cc1c[nH]c2ccccc12)C(=O)O [TRYPTOPHAN]
protection against MPP+ toxicity [1]: effective

O=C1O[C@H]([C@@H](O)CO)C(O)=C1O [VITAMIN C, ascorbic acid]
block of DA oxidation [3]: block

O=C(O)/C=C/c1ccc(O)c(O)c1 [caffeic acid]
reduce/chelate and complex iron [2]: most powerful

COC1=C(OC)C(=O)C(C/C=C(\C)CC/C=C(\C)CC/C=C(\C)CC/C=C(\C)CC/C=C(\C)CC/C=C(\C)CC/C=C(\C)CC/C=C(\C)CC/C=C(\C)CCC=C(C)C)=C(C)C1=O [coenzyme Q10]
protection against MPP+ toxicity [1]: no effects
effects on mitochondrial O2 consumption / mitochondrial respiration as a whole [7]: no effects
effects on complex I function [8]: little to no effects
effects on complex IV function [9]: little to no effects
potentiation of complex II function [10]: mild potentiator

O=c1oc2c(O)c(O)cc3c(=O)oc4c(O)c(O)cc1c4c23 [ellagic acid]
reduce/chelate and complex iron [2]: most powerful

N[C@@H](Cc1c[nH]cn1)C(=O)O [histidine]
protection against / antagonism of 6-OHDA toxicity [4]: mild protection

O=c1c(O)c(-c2ccc(O)c(O)c2)oc2cc(O)cc(O)c12 [quercetin]
reduce/chelate and complex iron [2]: most powerful

Cc1cc2nc3c(=O)[nH]c(=O)nc-3n(C[C@H](O)[C@H](O)[C@H](O)CO)c2cc1C [riboflavin, RIBOFLAVIN]
protection against MPP+ toxicity [1]: exacerbating

COc1cc(CCC(C)=O)ccc1O [zingerone]
antagonism of 6-OHDA toxicity [11]: directly antagonize

CC1=C(/C=C/C(C)=C/C=C/C(C)=C/C=C/C=C(C)/C=C/C=C(C)/C=C/C2=C(C)CCCC2(C)C)C(C)(C)CCC1 [β-CAROTENE]
scavenge H2O2 [12]: scavenge
block of DA oxidation [3]: block

CYTOCHROME C: cytochrome C, combined with an H2O2 antioxidant to detoxify 6-OHDA
protection against / antagonism of 6-OHDA toxicity [4]: directly antagonize

NARINGEN
protection against MPP+ toxicity [1]: effective

Vitamin E
scavenge H2O2 [12]: lack of effects
block of DA oxidation [3]: lack of effects
